# Values of other authors in patent US9849196B2, “Methods and compositions for altering photophysical properties of fluorophores via proximal quenching” (Cornell University, priority 2009, dated 2017).
# Conditions: background statement
row,solubility in aqueous solutions,Structure (SMILES)
1,highly insoluble,"O=[N+]([O-])c1ccc(CO)cc1 [NBA, p-nitrobenzyl alcohol]"
2,highly insoluble,Cc1c(C)c2c(c(C)c1O)CCC(C)(C(=O)O)O2 (stereo not drawn) [Trolox]
3,highly insoluble,"C1=CC=CC=CC=C1 [COT, cyclooctatetraene]"
